How the values were obtained:
[1] = target: DPP1 in HL-60 cells (Homo sapiens, UniProt P53634); experiment: DPP1 Cell IC50 assay; assay type: cell-based; parameters: host or cells: HL-60 cells; details: 60 min pre-incubation, H-Gly-Phe-AFC substrate, average of n runs, read-out: Avg. IC50 (DPP1 Cell IC50 value ranges)
Experimental: Example 99. DPP1 Cell IC50 assay
HL-60 cells (ATCC; Manassas, VA) were maintained in RPMI-1640 supplemented with 20% heat-inactivated FBS and 1× Antibiotic Antimycotic (Cytiva; Marlborough, MA). Media was changed every three to four days and cells were not allowed to exceed 1×10^6 cells per mL. Prior to assay, cells were collected by centrifugation at 500 rcf for 3 minutes, resuspended in PBS and counted. Cells were diluted in PBS to a concentration of 5×10^5 live cells per mL and transferred to black 96-well plates for assay, 60 μL per well. Test articles were diluted in PBS plus 0.5% DMSO, and 20 μL was added to each assay well. Compound was allowed to pre-incubate with cells with gentle shaking at 100 rpm for 60 minutes at 37° C. in a cell culture incubator maintained at 5% CO2, after which 20 μL of 500 μM H-Gly-Phe-AFC substrate (MP Biomedicals; Solon, OH) was added to each well. Plates were returned to the incubator with shaking at 100 rpm for 30 minutes, after which fluorescence was measured at Excitation/Emission 400/505 nm. % Inhibition was calculated from RFU values compared to control cell wells that received only PBS plus 0.5% DMSO. IC50 values for each compound were calculated via the XLFit (IDBS Version 5.3.1.3) Add-On to Microsoft Excel using the four parameter fit equation y=(A+((B−A)/(1+((C/x)^D)))), which appears as equation number 205 (4 Parameter Logistic Model or Sigmoidal Dose-Response Model) in XLFit. IC50 was defined as the compound concentration at which 50% of enzyme activity was inhibited when compared to the no-compound control.

[2] = target: human DPP1 enzyme (Homo sapiens, UniProt P53634); experiment: Human DPP1 Enzyme IC50 Assay; assay type: biochemical; parameters: was first proteolytically processed into its mature form using recombinant human cathepsin L; purchased R&D Systems; details: activated recombinant human DPP1, 400 μM H-Gly-Arg-AMC, 10 minutes pre-incubation at 37° C., pH 6.0; average of n runs; read-out: Avg. IC50 (Human DPP1 enzyme IC50 value ranges)
Chain of human DPP1 enzyme (P53634 25-134 limits assumed): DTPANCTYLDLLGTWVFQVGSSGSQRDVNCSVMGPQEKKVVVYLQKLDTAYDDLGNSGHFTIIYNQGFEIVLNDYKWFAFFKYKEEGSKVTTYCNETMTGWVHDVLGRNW
Chain of human DPP1 enzyme (P53634 231-394 limits assumed): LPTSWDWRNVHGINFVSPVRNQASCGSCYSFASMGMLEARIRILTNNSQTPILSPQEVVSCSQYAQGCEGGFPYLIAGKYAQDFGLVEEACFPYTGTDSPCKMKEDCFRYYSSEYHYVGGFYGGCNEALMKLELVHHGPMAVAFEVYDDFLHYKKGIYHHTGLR
Chain of human DPP1 enzyme (P53634 395-463 limits assumed): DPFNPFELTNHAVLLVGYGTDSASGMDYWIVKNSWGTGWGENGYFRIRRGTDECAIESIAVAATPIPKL
Experimental: Example 97. Human DPP1 Enzyme IC50 Assay
Recombinant human DPP1 enzyme (R&D Systems; Minneapolis, MN) was first proteolytically processed into its mature form using recombinant human cathepsin L (R&D Systems) in a buffer consisting of 20 mM citric acid pH 4.5, 150 mM NaCl, 1 mM EDTA and 10 mM DTT. Test articles were applied to activated human DPP1 enzyme in Assay Buffer (25 mM MES pH 6.0, 50 mM NaCl, 5 mM DTT) in a total reaction volume of 125 μL. 25 μL of compound in Assay Buffer plus 5% DMSO was first added to 50 μL of activated human DPP1 enzyme at a concentration of 1 ng/μL and allowed to pre-incubate for 10 minutes at 37° C. after which 50 μL of 1000 μM H-Gly-Arg-AMC substrate (Bachem; St. Torrance, CA) was added, giving final substrate concentration of 400 μM and a final DMSO concentration of 1%. Substrate cleavage was measured for 90 minutes at 37° C., with fluorescence at Excitation/Emission 350/450 nm measured every 5 minutes. DPP1 concentration was interpolated based on its activity relative to a standard curve of activated human recombinant DPP1 enzyme. IC50 values for each compound were calculated via the XLFit (IDBS Version 5.3.1.3) Add-On to Microsoft Excel using the four parameter fit equation y={A+[(B−A)]/[1+((C/x)^D)]}, which appears as equation number 205 (4 Parameter Logistic Model or Sigmoidal Dose-Response Model) in XLFit. Default constraints were used for each Parameter. IC50 was defined as the compound concentration at which 50% of enzyme activity was inhibited when compared to the no-compound control.

Chain of DPP1 in HL-60 cells (P53634 25-463): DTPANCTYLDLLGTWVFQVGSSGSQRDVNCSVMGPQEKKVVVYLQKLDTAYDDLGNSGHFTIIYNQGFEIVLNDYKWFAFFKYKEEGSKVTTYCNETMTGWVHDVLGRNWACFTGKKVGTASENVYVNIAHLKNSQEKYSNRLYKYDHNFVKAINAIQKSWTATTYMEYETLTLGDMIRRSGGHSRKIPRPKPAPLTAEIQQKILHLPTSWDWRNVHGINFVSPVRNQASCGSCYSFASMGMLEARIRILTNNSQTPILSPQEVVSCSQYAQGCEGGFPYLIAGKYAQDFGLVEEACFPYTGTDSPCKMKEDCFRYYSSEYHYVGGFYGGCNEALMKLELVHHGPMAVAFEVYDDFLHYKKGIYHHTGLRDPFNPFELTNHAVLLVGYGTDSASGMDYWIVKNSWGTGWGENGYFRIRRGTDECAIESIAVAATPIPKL

SMILES	IC50 [1]	IC50 [2]
CO[C@@H]1CCNC[C@@H](C(=O)NC(C#N)Cc2cnc(-c3ccc4c(F)nn(C)c4c3)s2)OC1 (mixture of isomers) [Compound A38, (2S,7R)—N-{1-cyano-2-[2-(3-fluoro-1-methylindazol-6-yl)-1,3-thiazol-5-yl]ethyl}-7-methoxy-1,4-oxazocane-2-carboxamide]	1 to 2.5 nM	5 to 15 nM
Cc1cn2cc(-c3cc4sc(C[C@@H](C#N)NC(=O)[C@@H]5CNCCCCO5)cc4s3)cc2c(C)n1 (single isomer, unassigned) [Compound A30]	> 2.5 nM	> 15 nM
Cc1cn2cc(-c3cc4sc(C[C@H](C#N)NC(=O)[C@@H]5CNCCCCO5)cc4s3)cc2c(C)n1 (single isomer, unassigned) [Compound A31]	> 2.5 nM	> 15 nM
CO[C@H]1CCO[C@H](C(=O)N[C@H](C#N)Cc2cc3cc(-c4cc5c(C)nc(C)cn5c4)ccc3s2)CNC1 (single isomer, unassigned) [Compound A45]	> 2.5 nM	> 15 nM
CO[C@H]1CCO[C@H](C(=O)NC(C#N)Cc2cc3cc(-c4cc5c(C)nc(C)cn5c4)ccc3s2)CNC1 (single isomer, unassigned) [Compound A46]	> 2.5 nM	> 15 nM
CO[C@@H]1CCNC[C@@H](C(=O)N[C@H](C#N)Cc2cc3cc(-c4cc5c(C)nc(C)cn5c4)ccc3s2)OC1 (single isomer, unassigned) [Compound A51]	1 to 2.5 nM	5 to 15 nM
CO[C@@H]1CCNC[C@@H](C(=O)NC(C#N)Cc2cc3cc(-c4cc5c(C)nc(C)cn5c4)ccc3s2)OC1 (single isomer, unassigned) [Compound A52]	> 2.5 nM	> 15 nM
N#Cc1ccc(C23CCC(C[C@@H](C#N)NC(=O)[C@@H]4CNCCCO4)(CC2)CC3)cc1 [Compound 1]		> 15 nM
N#Cc1ccc(C23CC(C[C@@H](C#N)NC(=O)[C@@H]4CNCCCO4)(C2)C3)cc1 [Compound 2]		> 15 nM
N#C[C@H](Cc1ccc(C23CC(C#N)(C2)C3)cc1)NC(=O)[C@@H]1CNCCCO1 [Compound 3]		> 15 nM
N#C[C@H](Cc1ccc(-c2ccnc3nc(O)oc23)cc1)NC(=O)[C@@H]1CNCCCO1 [Compound A13, (2S)—N-[(1S)-1-cyano-2-(4-{2-hydroxy-[1,3]oxazolo[4,5-b]pyridin-7-yl}phenyl)ethyl]-1,4-oxazepane-2-carboxamide]		> 15 nM
N#C[C@H](Cc1ccc(-c2cc3c(O)ccnn3c2)cc1)NC(=O)[C@@H]1CNCCCO1 [Compound A15, (S)—N—((S)-1-cyano-2-(4-(4-hydroxypyrrolo[1,2-b]pyridazin-6-yl)phenyl)ethyl)-1,4-oxazepane-2-carboxamide]		> 15 nM
N#C[C@H](Cc1ccc(-c2cnc3[nH]ccc3n2)cc1)NC(=O)[C@@H]1CNCCCO1 [Compound A16, (2S)—N-[(1S)-1-cyano-2-(4-{5H-pyrrolo[2,3-b]pyrazin-2-yl}phenyl)ethyl]-1,4-oxazepane-2-carboxamide]		> 15 nM
N#C[C@H](Cc1ccc(-c2cncc3[nH]c(=O)[nH]c23)cc1)NC(=O)[C@@H]1CNCCCO1 [Compound A17, (2S)—N-[(1S)-1-cyano-2-(4-{2-oxo-1H,3H-imidazo[4,5-c]pyridin-7-yl}phenyl)ethyl]-1,4-oxazepane-2-carboxamide]		> 15 nM
CO[C@H]1CCO[C@H](C(=O)N[C@H](C#N)Cc2cnc(-c3ccc4c(F)nn(C)c4c3)s2)CNC1 [Compound A170]		5 to 15 nM
Cn1nc(F)c2ccc(-c3ncc(C[C@@H](C#N)NC(=O)[C@@H]4CNCC[C@@H](F)CO4)s3)cc21 [Compound A172]		> 15 nM
Cn1c(=O)oc2ccc3c(c21)COc1cc(C[C@H](C#N)NC(=O)[C@@H]2CNCCCO2)c(F)cc1-3 [Compound C2-B]		> 15 nM

More lines, now with the values ahead:

IC50 [1]	IC50 [2]	SMILES
1 to 2.5 nM	5 to 15 nM	N#CC(Cc1cc2c(cc1F)-c1cc(C3COC3)c(F)cc1CO2)NC(=O)[C@@H]1CNCCCCO1 (mixture of isomers) [Compound B10, (2S)—N-{1-cyano-2-[2,8-difluoro-9-(oxetan-3-yl)-6H-benzo[c]chromen-3-yl]ethyl}-1,4-oxazocane-2-carboxamide]
1 to 2.5 nM	< 5 nM	CO[C@@H]1CCNC[C@@H](C(=O)NC(C#N)Cc2cc3c(cc2F)-c2ccc(C#N)cc2CO3)OC1 (mixture of isomers) [Compound B11, (2S,7R)—N-(1-cyano-2-{8-cyano-2-fluoro-6H-benzo[c]chromen-3-yl}ethyl)-7-methoxy-1,4-oxazocane-2-carboxamide]
1 to 2.5 nM	< 5 nM	CO[C@H]1CCO[C@H](C(=O)NC(C#N)Cc2cc3c(cc2F)-c2cc(C4COC4)c(F)cc2CO3)CNC1 (mixture of isomers) [Compound B15, (2S,6S)—N-{1-cyano-2-[2,8-difluoro-9-(oxetan-3-yl)-6H-benzo[c]chromen-3-yl]ethyl}-6-methoxy-1,4-oxazocane-2-carboxamide]
> 2.5 nM	> 15 nM	Cn1c(=O)oc2ccc3c(c21)COc1cc(CC(C#N)NC(=O)[C@@H]2CNCCCO2)c(F)cc1-3 (mixture of isomers) [Compound C2, (2S)—N-(1-cyano-2-(8-fluoro-3-methyl-2-oxo-3,4-dihydro-2H-benzo[3,4]isochromeno[8,7-d]oxazol-7-yl)ethyl)-1,4-oxazepane-2-carboxamide]
> 2.5 nM	< 5 nM	CN1CCC2(CCc3cc4c(cc32)-c2cc(F)c(CC(C#N)NC(=O)[C@@H]3CNCCCO3)cc2OC4)CC1 (mixture of isomers) [Compound C3, (2S)—N-(1-cyano-2-{2-fluoro-1′-methyl-8,9-dihydro-6H-spiro[indeno[5,6-c]chromene-10,4′-piperidin]-3-yl}ethyl)-1,4-oxazepane-2-carboxamide]
	> 15 nM	N#Cc1ccc2c(c1)COc1cc(C[C@@H](C#N)NC(=O)[C@@H]3CNCCCCO3)c(F)cc1-2 (single isomer, unassigned) [Compound B8]
< 1 nM	< 5 nM	CO[C@H]1CCO[C@H](C(=O)N[C@H](C#N)Cc2cc3c(cc2F)-c2ccc(C#N)cc2CO3)CNC1 (single isomer, unassigned) [Compound B13]
> 2.5 nM	> 15 nM	CO[C@H]1CCO[C@H](C(=O)NC(C#N)Cc2cc3c(cc2F)-c2ccc(C#N)cc2CO3)CNC1 (single isomer, unassigned) [Compound B14]
	> 15 nM	CN1Cc2cc(F)ccc2-c2ccc(C[C@@H](C#N)NC(=O)[C@@H]3CNCCCO3)cc2C1=O [Compound B3, (2S)—N-[(1S)-1-cyano-2-{13-fluoro-9-methyl-8-oxo-9-azatricyclo[9.4.0.0^{2,7}1]pentadeca-1(11),2,4,6,12,14-hexaen-5-yl}ethyl]-1,4-oxazepane-2-carboxamide]
	> 15 nM	CN1CCC2(CCc3ccc4c(c32)COc2cc(CC(C#N)NC(=O)[C@@H]3CNCCCO3)c(F)cc2-4)CC1 (stereo partly drawn) [Compound C4, (2S)—N-(1-cyano-2-{8-fluoro-1′-methyl-2,4-dihydro-1H-spiro[indeno[4,5-c]chromene-3,4′-piperidin]-7-yl}ethyl)-1,4-oxazepane-2-carboxamide]
	< 5 nM	CO[C@H]1CCO[C@H](C(=O)N[C@H](C#N)Cc2ccc(-c3ccc4cnn(C5CCN(C)CC5)c4c3)cc2F)CNC1 [Compound H1]
	5 to 15 nM	CO[C@H]1CCO[C@H](C(=O)N[C@H](C#N)Cc2ccc(-c3ccc4cnn(C5CCN(C6COC6)CC5)c4c3)cc2F)CNC1 [Compound H2]

From patent US20260008760A1, “DIPEPTIDYL PEPTIDASE 1 INHIBITORS AND USES THEREOF” (Insmed Incorporated, priority 2024, published 2026)
